Assay results taken from patent US10085449B2, “N-[1-((6-chloropyridin-3-yl)methyl)pyridin-2(1H)-ylidene]-2,2,2- trifluoroacetamide for control of agricultural/horticultural pests” (priority 2010, dated 2018).
Read-outs that look alike come from different tables or passages of the source.

How the values were obtained:
[1] = test system: brown rice planthopper having a low susceptibility to insecticides; type: in vivo; details: 0.05 mg/seedling soil drenching
Description: (§1) Rice seedlings grown in pots were subjected to soil drenching treatment with solutions of the inventive compounds at a predetermined concentration prepared to 10% acetone/water. Three days after treatment, ten second-instar brown rice planthopper larvae having a low susceptibility to insecticides were released onto each seedling. The seedlings and insects were then held in an incubation chamber at 25° C. (16-hour period of light, 8-hour dark period). Three days after released, the numbers of live and dead insects were counted, and the mortality was calculated from the following formula. The test was carried out as two replications. Mortality (%)=[number of dead insects/(number of live insects+number of dead insects)]×100
The pests used in this test were insects that had been raised indoors for successive generations over a long period of time (susceptible line), and insects that had been raised indoors for successive generations after being collected (I) in 2007 within Kumamoto Prefecture and (II) in 2005 within Fukuoka Prefecture (field-collected lines).

[2] = test system: small brown planthopper having a low susceptibility to insecticides; assay: Small brown planthopper control test, pests having a low susceptibility to insecticides (soil drenching); type: in vivo; details: 0.01 mg/seedling soil drenching
Description: as §1, with “second-instar small” for “second-instar”, “brown” for “brown rice”
The pests used in this test were insects that had been raised indoors for successive generations over a long period of time (susceptible line), and insects that had been raised indoors for successive generations after being collected in 2006 within Kumamoto Prefecture (field-collected line).

[3] = test system: house fly crude enzyme extract; assay: In vitro metabolic test using house fly crude enzyme extract; type: in vitro ADME; details: house fly crude enzyme extract with NADP+ regenerating system, 25° C., 40 hours, LC/MS
Description: As mentioned in Pest Management Science, 59(3), 347-352 (2003) and the Journal of Pesticide Science, 29(2), 110-116 (2004), imidacloprid is known to be inactivated by incurring oxidative metabolism, which is thought to be one mechanism of acquiring resistance to this agent. The following experiment was carried out to confirm the effects in pests which have acquired such resistance.
An amount of 10 mL of a potassium phosphate buffer solution (pH 7.4, containing 1 mM EDTA) was added to adult house flies (0.645 g), and the flies were thoroughly homogenized in a Physcotron (Niti-On Medical and Physical Instruments Manufacturing Co.). The homogenate was then centrifuged at 10,000 g for 15 minutes. The resulting supernatant was additionally centrifuged at 100,000 g for 60 minutes, giving a precipitate. The precipitate was dissolved in 1 mL of a potassium phosphate buffer, and the resulting solution was used as the crude enzyme extract. The enzyme extraction operations were all carried out on ice or at 4° C.
The reagents were mixed in the following proportions within a 1.5 mL tube, and the reaction was effected at 25° C. for 40 hours. Following the reaction, 1 mL of acetone was added and the mixture was stirred, following which the precipitate that formed was centrifuged at 12,000 rpm for 5 minutes. […]

[4] = test system: Haemaphysalis longicornis; type: in vivo; details: 10 ppm acetone solution (30 μL) dry film, larval ticks, 1 day after release
Description: Glass vials having a capacity of 4 mL were each filled with 30 μL of an acetone solution containing 200 ppm or 10 ppm of the respective compounds. These filled vials were placed on a shaker and air-dried while being spun, thereby forming dry films of the compounds on the inner walls of the vials. After the vials had been dried for at least 24 hours, ten larval ticks (Haemaphysalis longicornis) were released into each vial, following which the vials were capped. The vials were then left at rest in an incubation chamber at 25° C., 85% humidity and complete darkness. One day after released, the numbers of live and dead ticks were counted, and the mortality was calculated from the following formula.
This test was carried out as two replications. Mortality (%)=[number of dead ticks/(number of live ticks+number of dead ticks)]×100

Compound `O=[N+]([O-])NC1=NCCN1Cc1ccc(Cl)nc1` [imidacloprid] has a Mortality ([1]; field-collected line (I) 2007 Kumamoto Prefecture) of 40%, a Mortality ([1]; field-collected line (II) 2005 Fukuoka Prefecture) of 60% and a Mortality ([1]; susceptible line) of 100%. For the same compound, the Mortality ([2]; field-collected line (2006 Kumamoto Prefecture)) was 50%, the Mortality ([2]; susceptible line) was 100% and the “Sum of the surface area percentages for the metabolites” value [3] was 2.55%. For the same compound, the Mortality [4] was 4%.
